This assay has as its target Glutaminyl-peptide cyclotransferase (Homo sapiens, UniProt Q16769).

Glutaminyl-peptide cyclotransferase, sequence (Q16769 whole entry): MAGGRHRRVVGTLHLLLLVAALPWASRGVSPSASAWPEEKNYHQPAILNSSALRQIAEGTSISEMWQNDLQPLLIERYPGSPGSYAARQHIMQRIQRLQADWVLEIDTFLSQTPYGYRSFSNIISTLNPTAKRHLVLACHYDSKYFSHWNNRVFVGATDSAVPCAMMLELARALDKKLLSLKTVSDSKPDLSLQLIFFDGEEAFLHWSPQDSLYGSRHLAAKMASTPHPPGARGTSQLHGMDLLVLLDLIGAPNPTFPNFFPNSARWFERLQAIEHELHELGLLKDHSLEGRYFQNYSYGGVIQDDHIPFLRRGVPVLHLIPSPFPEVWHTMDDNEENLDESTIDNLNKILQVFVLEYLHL

Consider `COc1ccc(N(C(=S)NCCCn2cncc2C)C2CCN(C)CC2)cc1OC`, for which the IC50 – broadly, the point on the concentration scale where inhibition reaches its midpoint – was determined as 3.36 nM.
